Assay results as given in ChEMBL document CHEMBL1201862, “PubChem BioAssay data set” (2004).
Activity calls are given as the source filed them.

Key:
Aminopeptidase N = molecular target: T1, Aminopeptidase N (Plasmodium falciparum FcB1/Columbia, UniProt O96935); experiment: malaria alanyl aminopeptidase activity blockers – biochemical, fluorogenic H-Leu-NHMec substrate, 1536-well (AID 1445); design: species or system Plasmodium falciparum 3D7, 3D7
T1 sequence (O96935 whole entry): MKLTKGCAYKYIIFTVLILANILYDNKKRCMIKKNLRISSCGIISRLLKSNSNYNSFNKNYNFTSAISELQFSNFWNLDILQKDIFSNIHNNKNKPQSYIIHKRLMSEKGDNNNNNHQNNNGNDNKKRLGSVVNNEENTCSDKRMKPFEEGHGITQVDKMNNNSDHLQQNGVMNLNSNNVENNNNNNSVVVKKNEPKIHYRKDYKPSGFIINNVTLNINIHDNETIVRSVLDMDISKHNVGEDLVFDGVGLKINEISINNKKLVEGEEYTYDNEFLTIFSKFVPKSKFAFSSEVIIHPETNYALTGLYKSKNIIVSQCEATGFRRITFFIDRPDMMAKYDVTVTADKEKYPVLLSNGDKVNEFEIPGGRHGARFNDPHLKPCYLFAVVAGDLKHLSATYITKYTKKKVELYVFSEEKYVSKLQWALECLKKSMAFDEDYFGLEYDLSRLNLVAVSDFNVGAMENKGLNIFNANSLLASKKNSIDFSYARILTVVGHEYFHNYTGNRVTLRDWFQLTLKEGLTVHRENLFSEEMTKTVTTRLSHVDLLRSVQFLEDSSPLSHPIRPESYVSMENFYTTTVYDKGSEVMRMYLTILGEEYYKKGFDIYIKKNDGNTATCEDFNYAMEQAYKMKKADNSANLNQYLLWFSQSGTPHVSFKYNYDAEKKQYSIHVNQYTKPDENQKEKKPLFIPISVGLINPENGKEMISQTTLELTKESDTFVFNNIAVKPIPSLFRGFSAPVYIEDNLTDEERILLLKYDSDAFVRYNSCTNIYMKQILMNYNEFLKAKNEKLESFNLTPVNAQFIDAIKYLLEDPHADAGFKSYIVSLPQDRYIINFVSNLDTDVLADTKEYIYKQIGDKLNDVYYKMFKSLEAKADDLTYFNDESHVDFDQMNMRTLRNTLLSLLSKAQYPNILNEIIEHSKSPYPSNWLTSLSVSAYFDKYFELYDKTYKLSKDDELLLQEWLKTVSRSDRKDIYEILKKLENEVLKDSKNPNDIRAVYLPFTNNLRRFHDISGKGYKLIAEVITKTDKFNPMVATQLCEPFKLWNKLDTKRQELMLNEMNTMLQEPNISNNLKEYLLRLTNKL

[1] = molecular target: T2, Corticotropin-releasing factor receptor 2/Corticotropin-releasing factor-binding protein (Homo sapiens, UniProt P24387+Q13324); experiment: activators of CRF receptor 2 with binding protein – uHTS hits, confirmation (AID 602473); assay type: functional; details: read-out: EC50_Mean
T2 sequence (Q13324 whole entry): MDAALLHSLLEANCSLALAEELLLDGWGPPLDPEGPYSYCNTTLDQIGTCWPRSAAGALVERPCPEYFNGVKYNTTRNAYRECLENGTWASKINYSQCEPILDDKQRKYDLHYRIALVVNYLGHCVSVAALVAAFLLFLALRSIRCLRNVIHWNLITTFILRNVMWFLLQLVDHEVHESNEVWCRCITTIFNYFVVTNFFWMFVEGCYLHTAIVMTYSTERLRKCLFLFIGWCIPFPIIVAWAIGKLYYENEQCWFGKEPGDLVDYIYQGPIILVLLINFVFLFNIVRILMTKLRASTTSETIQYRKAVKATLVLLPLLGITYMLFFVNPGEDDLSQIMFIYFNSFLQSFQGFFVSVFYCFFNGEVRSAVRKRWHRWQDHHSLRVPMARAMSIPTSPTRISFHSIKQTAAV
T2 sequence (P24387 whole entry): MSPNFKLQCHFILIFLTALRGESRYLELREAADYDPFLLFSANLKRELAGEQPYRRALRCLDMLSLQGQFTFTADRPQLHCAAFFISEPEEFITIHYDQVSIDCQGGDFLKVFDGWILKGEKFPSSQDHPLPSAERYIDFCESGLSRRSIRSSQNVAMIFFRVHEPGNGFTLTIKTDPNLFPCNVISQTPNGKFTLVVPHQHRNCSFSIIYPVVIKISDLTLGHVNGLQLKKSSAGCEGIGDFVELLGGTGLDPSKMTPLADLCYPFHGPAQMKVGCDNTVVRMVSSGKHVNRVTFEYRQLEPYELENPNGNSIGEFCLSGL

[2] = Trypanosoma cruzi growth suppression in host cells – NIH3T3 host cells, beta-gal luminescence, confirmation (AID 2044); assay type: functional, cell-based;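 note: intracellular parasites grown in NIH/3T3 mouse fibroblasts as host cells; luminescent beta-galactosidase reporter signal from transgenic T. cruzi replicating inside host cells; inhibitors lower the luminescence signal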
[3] = NIH3T3 cell viability loss – ATP luminescence, mouse fibroblasts, counter-screen, dose response (AID 2010); assay type: functional, cell-based;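 note: cells exposed to compound for about 90 hours before reading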
INS1 = experiment: INS-1E survival protection against cytokine death – cell-based, luminescence, retest, dose response (AID 449756); assay type: functional; details: Rattus norvegicus;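 note: cell death triggered by IL-1 beta plus TNF-alpha plus IFN-gamma mixture; protective hits raise ATP signal compared with cytokine alone wells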
[4] = Luminescence Cell-Based Dose Retest to Confirm Inhibitors of Cancer Stem Cells. [Related pubchem assays (depositor defined):AID2717, AID2721]; assay type: functional; details: Homo sapiens
[5] = molecular target: T3, Ubiquitin-conjugating enzyme E2 N (Homo sapiens, UniProt P61088); assay type: functional;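 note: Dose-response confirmation in a TR-FRET assay detecting UBC13-driven polyubiquitin chain formation, inhibition measured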
T3 sequence (P61088 whole entry): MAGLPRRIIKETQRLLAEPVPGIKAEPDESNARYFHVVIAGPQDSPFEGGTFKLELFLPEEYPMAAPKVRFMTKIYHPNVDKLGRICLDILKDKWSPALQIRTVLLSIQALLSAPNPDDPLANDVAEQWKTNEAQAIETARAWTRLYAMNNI

[6] = molecular target: T4, Replicative DNA helicase DnaB (Mycobacterium tuberculosis, UniProt P9WMR3); experiment: DnaB intein splicing inhibitors, dose response, biochemical, cell-free fluorescence (AID 449749); assay type: functional
T4 sequence (P9WMR3 whole entry): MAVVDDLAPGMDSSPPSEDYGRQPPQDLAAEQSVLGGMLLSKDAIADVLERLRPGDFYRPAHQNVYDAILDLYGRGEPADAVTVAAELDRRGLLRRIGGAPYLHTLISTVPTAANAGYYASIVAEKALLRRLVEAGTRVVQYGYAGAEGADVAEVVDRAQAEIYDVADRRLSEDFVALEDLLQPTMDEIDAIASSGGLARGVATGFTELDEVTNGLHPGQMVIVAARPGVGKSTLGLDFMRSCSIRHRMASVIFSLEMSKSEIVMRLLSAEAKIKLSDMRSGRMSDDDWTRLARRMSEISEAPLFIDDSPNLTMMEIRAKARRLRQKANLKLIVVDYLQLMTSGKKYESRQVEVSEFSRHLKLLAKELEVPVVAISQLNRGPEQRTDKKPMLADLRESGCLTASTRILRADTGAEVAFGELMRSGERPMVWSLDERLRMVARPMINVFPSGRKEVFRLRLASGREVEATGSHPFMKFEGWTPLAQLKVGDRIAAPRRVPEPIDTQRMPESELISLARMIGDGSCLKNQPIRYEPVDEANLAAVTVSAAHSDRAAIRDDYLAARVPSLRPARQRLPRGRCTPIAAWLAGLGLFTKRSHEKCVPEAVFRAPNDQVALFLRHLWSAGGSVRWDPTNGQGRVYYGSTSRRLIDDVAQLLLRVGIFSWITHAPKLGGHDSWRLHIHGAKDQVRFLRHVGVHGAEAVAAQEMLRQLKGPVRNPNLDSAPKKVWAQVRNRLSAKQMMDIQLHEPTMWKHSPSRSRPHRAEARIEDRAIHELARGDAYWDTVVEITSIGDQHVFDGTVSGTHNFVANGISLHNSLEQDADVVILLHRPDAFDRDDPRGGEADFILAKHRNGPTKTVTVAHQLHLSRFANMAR

Protein RecA = molecular target: T5, Protein RecA (Mycobacterium tuberculosis, UniProt P9WHJ3); experiment: Fluorescence Cell-Free Homogeneous Dose Retest to Identify Inhibitors of RecA-Intein Splicing Activity. [Related pubchem assays (depositor defined):AID2097, AID2223, AID489010, AID492950]; assay type: functional
T5 sequence (P9WHJ3 whole entry): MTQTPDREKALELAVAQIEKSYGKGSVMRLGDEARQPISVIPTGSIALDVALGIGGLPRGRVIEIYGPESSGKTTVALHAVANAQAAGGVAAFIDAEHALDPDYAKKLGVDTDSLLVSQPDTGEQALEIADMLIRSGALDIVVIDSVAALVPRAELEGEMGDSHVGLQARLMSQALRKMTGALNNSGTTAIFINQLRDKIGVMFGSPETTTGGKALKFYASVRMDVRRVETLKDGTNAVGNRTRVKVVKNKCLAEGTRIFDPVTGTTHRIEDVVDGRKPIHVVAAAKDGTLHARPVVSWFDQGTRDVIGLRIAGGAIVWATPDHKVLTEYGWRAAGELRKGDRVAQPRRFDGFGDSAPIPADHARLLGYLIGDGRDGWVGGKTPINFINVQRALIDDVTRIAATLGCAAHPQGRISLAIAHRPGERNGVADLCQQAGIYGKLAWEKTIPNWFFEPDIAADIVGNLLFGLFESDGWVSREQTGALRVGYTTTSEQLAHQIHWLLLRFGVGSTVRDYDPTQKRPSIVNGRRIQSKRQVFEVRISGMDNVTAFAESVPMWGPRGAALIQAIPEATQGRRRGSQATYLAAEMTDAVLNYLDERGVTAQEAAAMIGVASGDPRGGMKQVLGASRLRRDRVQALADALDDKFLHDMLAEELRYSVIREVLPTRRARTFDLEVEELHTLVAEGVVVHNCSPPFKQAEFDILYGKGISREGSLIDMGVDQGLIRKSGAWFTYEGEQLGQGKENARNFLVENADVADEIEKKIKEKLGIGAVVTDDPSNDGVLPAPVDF

[7] = molecular target: T6, RNA-binding protein pos-1 (Caenorhabditis elegans, UniProt G5EF15); experiment: disruptors of C. elegans POS-1 RNA interaction – biochemical, fluorescence polarization, dose response (AID 1964);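 note: purified POS-1 fused to maltose binding protein made in E. coli; potency of compounds blocking POS-1 binding to fluorescent RNA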
T6 sequence (G5EF15 whole entry): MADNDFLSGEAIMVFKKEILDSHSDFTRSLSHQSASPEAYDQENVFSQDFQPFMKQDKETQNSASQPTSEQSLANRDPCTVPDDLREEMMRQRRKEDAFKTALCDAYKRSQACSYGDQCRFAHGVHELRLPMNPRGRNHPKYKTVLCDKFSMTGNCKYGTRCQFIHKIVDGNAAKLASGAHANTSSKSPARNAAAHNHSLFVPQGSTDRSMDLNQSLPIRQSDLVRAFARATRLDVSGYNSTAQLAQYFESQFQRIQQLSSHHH

[8] = molecular target: T7, Zinc finger protein mex-5 (Caenorhabditis elegans, UniProt Q9XUB2); experiment: potency of MEX-5 RNA-binding blockers – biochemical, C. elegans, fluorescence polarization, dose response (AID 1960)
T7 sequence (Q9XUB2 whole entry): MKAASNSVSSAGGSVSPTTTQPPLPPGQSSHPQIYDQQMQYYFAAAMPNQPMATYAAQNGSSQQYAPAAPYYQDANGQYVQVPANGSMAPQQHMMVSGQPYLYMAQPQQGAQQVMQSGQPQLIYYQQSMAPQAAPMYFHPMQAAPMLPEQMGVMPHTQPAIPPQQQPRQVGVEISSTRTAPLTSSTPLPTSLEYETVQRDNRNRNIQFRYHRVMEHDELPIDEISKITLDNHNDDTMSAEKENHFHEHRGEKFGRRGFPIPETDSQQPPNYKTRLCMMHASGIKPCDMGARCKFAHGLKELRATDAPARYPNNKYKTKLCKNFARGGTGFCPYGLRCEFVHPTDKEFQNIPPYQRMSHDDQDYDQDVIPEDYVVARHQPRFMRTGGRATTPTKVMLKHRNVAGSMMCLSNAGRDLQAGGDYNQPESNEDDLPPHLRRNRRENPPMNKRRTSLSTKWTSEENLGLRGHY

P388 = experiment: cells; assay type: functional; details: Mus musculus
SN12K1 = experiment: cells; assay type: functional; details: Homo sapiens
P388/ADR = experiment: cells; assay type: functional; details: Mus musculus

COc1cc(/C=C2\C(=N)N3C(=NC2=O)Sc2cc(S(C)(=O)=O)ccc23)ccc1O
IC50 (Aminopeptidase N): 45.7 µM (active) | EC50 [1]: 5.19 µM (active)

O=C(NC(NC(=S)Nc1ccccc1)C(Cl)(Cl)Cl)c1cccc(Cl)c1 (configuration not stated)
EC50 [2]: 2.31 µM (active) | EC50 [3]: > 60 µM (not active) | AC50 (INS1): 8.54 µM (active) | AC50 [4]: 4.73 µM (active)

CCn1c(=O)cc(C(F)(F)F)[nH]c1=S
IC50 [5]: > 20 µM (inactive)

CCOC(=O)C1=C(Nc2ccccc2)S/C(=C\c2ccc(OCC(=O)O)c(OCC)c2)C1=O
IC50 (Aminopeptidase N): 60.2 µM (active)

Cc1[nH][nH]c(=O)c1C(c1cc([N+](=O)[O-])ccc1O)c1c(C)[nH][nH]c1=O
AC50 [6]: 0.399 µM (active) | IC50 (Aminopeptidase N): 30.1 µM (active) | EC50 (Protein RecA): 0.262 µM (active) | EC50 [7]: 64.5 µM (active) | EC50 [8]: 16.7 µM (active)

Cc1ccc(C(C(=O)NCC2CCCO2)N(C(=O)c2snc(C(N)=O)c2N)c2ccccc2F)o1 (configuration not stated)
IC50 [5]: > 20 µM (inactive)

O=c1c2cc(Br)ccc2[nH]c(=S)n1-c1ccccc1
IC50 [5]: > 20 µM (inactive)

CCN1CCN(S(=O)(=O)c2ccc(Cl)c(C(=O)N(C)Cc3cccs3)c2)CC1
IC50 [5]: > 20 µM (inactive)

CCCCCOc1ccc(/C=N\c2ccc(CCc3ccc(/N=C/c4ccc(OCCCCC)cc4)cc3)cc2)cc1
GI50 (P388): > 100 µM (inactive) | GI50 (SN12K1): > 100 µM (inactive)

O=C(CCN1CCCCC1)C(=Cc1ccccc1)C(=O)CCN1CCCCC1
GI50 (P388): 15.6 µM (inactive) | GI50 (P388/ADR): 25.9 µM (inactive) | GI50 (SN12K1): 52.4 µM (inactive)

C=C(C)C(=O)/N=C(\N)NC#N
GI50 (P388): 3.72 µM (inactive) | GI50 (P388/ADR): 10.4 µM (inactive) | GI50 (SN12K1): 26.4 µM (inactive)

CSC[S+]([O-])C[C@H](CO)NC(=O)/C=C/c1c(C)[nH]c(=O)[nH]c1=O (some centres not stated)
GI50 (P388): 0.416 µM (active) | GI50 (P388/ADR): 1 µM (active) | GI50 (SN12K1): 1.31 µM (inactive)
